Experimental data: publication PMC7162861, “Synthesis, cytotoxicity, pharmacokinetic profile, binding with DNA and BSA of new imidazo[1,2-a]pyrazine-benzo[d]imidazol-5-yl hybrids” (Scientific Reports, 2020)

Experiments:
SR = assay: NCI cytotoxicity screen, Leukemia panel; format: cell-based; settings: Homo sapiens, single dose 10 µM, negative = lethal, read-out: Percent growth inhibition
Description: (§1) Cytotoxicity was performed at National Cancer Institute (NCI), Bethesda, USA as per their protocols.

RPMI-8226 = assay: NCI cytotoxicity screen, Leukemia panel; format: cell-based; settings: Homo sapiens; RPMI-8226; single dose 10 µM; negative = lethal; read-out: Percent growth inhibition
Description: as §1

HL-60(TB) = assay: NCI cytotoxicity screen, Leukemia panel; format: cell-based; settings: Homo sapiens, HL-60, HL-60(TB); single dose 10 µM; negative = lethal; read-out: Percent growth inhibition
Description: as §1

CCRF-CEM = assay: NCI cytotoxicity screen, Leukemia panel; format: cell-based; settings: Homo sapiens, single dose 10 µM, negative = lethal, read-out: Percent growth inhibition
Description: as §1

MOLT-4 = assay: NCI cytotoxicity screen, Leukemia panel; format: cell-based; settings: Homo sapiens, MOLT-4, MOLT-4; single dose 10 µM; negative = lethal; read-out: Percent growth inhibition
Description: as §1

K-562 = assay: NCI cytotoxicity screen, Leukemia panel; format: cell-based; settings: Homo sapiens, K562; K-562; single dose 10 µM; negative = lethal; read-out: Percent growth inhibition
Description: as §1

NCI-522 = assay: NCI cytotoxicity screen, Non-Small Cell Lung Cancer panel; format: cell-based, human; settings: Homo sapiens; NCI-522; single dose 10 µM; negative = lethal; read-out: Percent growth inhibition
Description: as §1

NCI-H23 = assay: as above; format: cell-based, human; settings: Homo sapiens, single dose 10 µM, negative = lethal, read-out: Percent growth inhibition
Description: as §1

NCI-H322M = assay: as above; format: cell-based, human; settings: Homo sapiens, single dose 10 µM, negative = lethal, read-out: Percent growth inhibition
Description: as §1

NCI-H226 = assay: as above; format: cell-based, human; settings: Homo sapiens, single dose 10 µM, negative = lethal, read-out: Percent growth inhibition
Description: as §1

MALME-3M = assay: NCI cytotoxicity screen, Melanoma panel; format: cell-based; settings: Homo sapiens; MALME-3M; single dose 10 µM; negative = lethal; read-out: Percent growth inhibition
Description: as §1

UACC-257 = assay: NCI cytotoxicity screen, Melanoma panel; format: cell-based; settings: Homo sapiens, single dose 10 µM, negative = lethal, read-out: Percent growth inhibition
Description: as §1

SK-MEL-5 = assay: NCI cytotoxicity screen, Melanoma panel; format: cell-based; settings: Homo sapiens, single dose 10 µM, negative = lethal, read-out: Percent growth inhibition
Description: as §1

SK-MEL-2 = assay: NCI cytotoxicity screen, Melanoma panel; format: cell-based; settings: Homo sapiens, single dose 10 µM, negative = lethal, read-out: Percent growth inhibition
Description: as §1

SK-MEL-28 = assay: NCI cytotoxicity screen, Melanoma panel; format: cell-based; settings: Homo sapiens, single dose 10 µM, negative = lethal, read-out: Percent growth inhibition
Description: as §1

MDA-MB-435 = assay: NCI cytotoxicity screen, Melanoma panel; format: cell-based; settings: Homo sapiens, MDA-MB-435, read-out: Percent growth inhibition
Description: as §1

DU-145 = assay: NCI cytotoxicity screen, Prostate Cancer panel; format: cell-based, human; settings: Homo sapiens, single dose 10 µM, negative = lethal, read-out: Percent growth inhibition
Description: as §1

PC-3 = assay: NCI cytotoxicity screen, Prostate Cancer panel; format: cell-based, human; settings: Homo sapiens, single dose 10 µM, negative = lethal, read-out: Percent growth inhibition
Description: as §1

SW-620 = assay: NCI cytotoxicity screen, Colon Cancer panel; format: cell-based, human; settings: Homo sapiens, single dose 10 µM, negative = lethal, read-out: Percent growth inhibition
Description: as §1

KM12 = assay: NCI cytotoxicity screen, Colon Cancer panel; format: cell-based, human; settings: Homo sapiens, single dose 10 µM, negative = lethal, read-out: Percent growth inhibition
Description: as §1

HCC-2998 = assay: NCI cytotoxicity screen, Colon Cancer panel; format: cell-based, human; settings: Homo sapiens; HCC-2998; single dose 10 µM; negative = lethal; read-out: Percent growth inhibition
Description: as §1

BT-549 = assay: NCI cytotoxicity screen, Breast Cancer panel; format: cell-based; settings: Homo sapiens, single dose 10 µM, negative = lethal, read-out: Percent growth inhibition
Description: as §1

HS 578 T = assay: NCI cytotoxicity screen, Breast Cancer panel; format: cell-based; settings: Homo sapiens; HS 578T; single dose 10 µM; negative = lethal; read-out: Percent growth inhibition
Description: as §1

T-47D = assay: NCI cytotoxicity screen, Breast Cancer panel; format: cell-based; settings: Homo sapiens, T47D, T-47D; single dose 10 µM; negative = lethal; read-out: Percent growth inhibition
Description: as §1

MDA-MB-468 = assay: NCI cytotoxicity screen, Breast Cancer panel; format: cell-based; settings: Homo sapiens, single dose 10 µM, negative = lethal, read-out: Percent growth inhibition
Description: as §1

MDA-MB-231/ATCC = assay: NCI cytotoxicity screen, Breast Cancer panel; format: cell-based; settings: Homo sapiens, MDA-MB-231, read-out: Percent growth inhibition
Description: as §1

MCF7 = assay: NCI cytotoxicity screen, Breast Cancer panel; format: cell-based; settings: Homo sapiens, single dose 10 µM, negative = lethal, read-out: Percent growth inhibition
Description: as §1

SN12C = assay: NCI cytotoxicity screen, Renal Cancer panel; format: cell-based; settings: Homo sapiens, single dose 10 µM, negative = lethal, read-out: Percent growth inhibition
Description: as §1

RXF 393 = assay: NCI cytotoxicity screen, Renal Cancer panel; format: cell-based; settings: Homo sapiens, single dose 10 µM, negative = lethal, read-out: Percent growth inhibition
Description: as §1

UO-31 = assay: NCI cytotoxicity screen, Renal Cancer panel; format: cell-based; settings: Homo sapiens, single dose 10 µM, negative = lethal, read-out: Percent growth inhibition
Description: as §1

ACHN = assay: NCI cytotoxicity screen, Renal Cancer panel; format: cell-based; settings: Homo sapiens, single dose 10 µM, negative = lethal, read-out: Percent growth inhibition
Description: as §1

OVCAR-8 = assay: NCI cytotoxicity screen, Ovarian Cancer panel; format: cell-based; settings: Homo sapiens, single dose 10 µM, negative = lethal, read-out: Percent growth inhibition
Description: as §1

IGROV1 = assay: NCI cytotoxicity screen, Ovarian Cancer panel; format: cell-based; settings: Homo sapiens, IGROV-1, single dose 10 µM, negative = lethal, read-out: Percent growth inhibition
Description: as §1

NCI/ADR-RES = assay: NCI cytotoxicity screen, Ovarian Cancer panel; format: cell-based; settings: Homo sapiens, single dose 10 µM, negative = lethal, read-out: Percent growth inhibition
Description: as §1

SK-OV-3 = assay: NCI cytotoxicity screen, Ovarian Cancer panel; format: cell-based; settings: Homo sapiens, single dose 10 µM, negative = lethal, read-out: Percent growth inhibition
Description: as §1

OVCAR-4 = assay: NCI cytotoxicity screen, Ovarian Cancer panel; format: cell-based; settings: Homo sapiens; OVCAR-4; single dose 10 µM; negative = lethal; read-out: Percent growth inhibition
Description: as §1

OVCAR-5 = assay: NCI cytotoxicity screen, Ovarian Cancer panel; format: cell-based; settings: Homo sapiens, single dose 10 µM, negative = lethal, read-out: Percent growth inhibition
Description: as §1

UACC-62 = assay: NCI cytotoxicity screen, Melanoma panel; format: cell-based, human; settings: Homo sapiens, single dose 10 µM, negative = lethal, read-out: Percent growth inhibition
Description: as §1

LOX IMVI = assay: NCI cytotoxicity screen, Melanoma panel; format: cell-based, human; settings: Homo sapiens, single dose 10 µM, negative = lethal, read-out: Percent growth inhibition
Description: as §1

M14 = assay: NCI cytotoxicity screen, Melanoma panel; format: cell-based, human; settings: Homo sapiens, single dose 10 µM, negative = lethal, read-out: Percent growth inhibition
Description: as §1

[1] = Experimental log P, shake-flask method; format: physicochemical; settings: n-octanol/phosphate buffer pH 7.4, read-out: Exp. Log P
Description: Partition coefficients or experimental log P values of all synthesized compounds (9–23, 30 and 31) were calculated using the shake-flask method. Log P values were determined using n-octanol and phosphate buffer (pH = 7.4) at 10:1 ratio of volumes. Stock solutions (10^−3 M) of compounds were prepared in DMSO. Glass vials were used to make final solutions i.e. stock solution (250 µL) and phosphate buffer (125 µL). To record the absorbance, wavelength was selected based on λmax of the respective compound. Initial absorbance (Ai) for every compound was noted consuming the stock solution in the buffer phase. Now added n-octanol to every vial and shaken well using a mechanical shaker for 50 minutes. To get separation of both phases, glass vials were centrifuged for 35 min. at 2500 rpm. Then, the layer of octanol was separated from glass vial. The final absorbance (Af) of each compound was recorded by using the buffer layer. The values of P for compounds were determined by the following equation (Eq. 8):8 P=Ai−Af/Af×Vw/Vo

CAKI-1 = assay: NCI cytotoxicity screen, Renal Cancer panel; format: cell-based; settings: Homo sapiens; CAKI-1; single dose 10 µM; negative = lethal; read-out: Percent growth inhibition
Description: as §1

## c1ccc(-c2cn3ccnc3c(-c3ccc4c(c3)ncn4C3CCCCC3)n2)cc1 [Compound 9, 8-(1-cyclohexyl-1H-benzo[d]imidazol-5-yl)-6-phenylimidazo[1,2-a]pyrazine]
SR
  inhibition at 10 µM: 44.6%
RPMI-8226
  inhibition at 10 µM: 18.3%
HL-60(TB)
  inhibition at 10 µM: 19.4%
CCRF-CEM
  inhibition at 10 µM: 11.7%
MOLT-4
  inhibition at 10 µM: 39.7%
K-562
  inhibition at 10 µM: 31.1%
NCI-522
  inhibition at 10 µM: 16.1%
NCI-H23
  inhibition at 10 µM: < 1%
NCI-H322M
  inhibition at 10 µM: 2.91%
NCI-H226
  inhibition at 10 µM: < 1%
MALME-3M
  inhibition at 10 µM: < 1%
UACC-257
  inhibition at 10 µM: < 1%
SK-MEL-5
  inhibition at 10 µM: 5.71%
SK-MEL-2
  inhibition at 10 µM: < 1%
SK-MEL-28
  inhibition at 10 µM: < 1%
MDA-MB-435
  inhibition at 10 µM: 0.53%
DU-145
  inhibition at 10 µM: 2.64%
PC-3
  inhibition at 10 µM: 13.5%
SW-620
  inhibition at 10 µM: < 1%
KM12
  inhibition at 10 µM: 5.7%
HCC-2998
  inhibition at 10 µM: < 1%
BT-549
  inhibition at 10 µM: 0.43%
HS 578 T
  inhibition at 10 µM: < 1%
T-47D
  inhibition at 10 µM: 25.5%
MDA-MB-468
  inhibition at 10 µM: < 1%
MDA-MB-231/ATCC
  inhibition at 10 µM: 6.64%
MCF7
  inhibition at 10 µM: 15.8%
SN12C
  inhibition at 10 µM: 4.83%
RXF 393
  inhibition at 10 µM: 23.3%
UO-31
  inhibition at 10 µM: 20.9%
ACHN
  inhibition at 10 µM: < 1%
OVCAR-8
  inhibition at 10 µM: < 1%
IGROV1
  inhibition at 10 µM: < 1%
NCI/ADR-RES
  inhibition at 10 µM: < 1%
SK-OV-3
  inhibition at 10 µM: < 1%
OVCAR-4
  inhibition at 10 µM: < 1%
OVCAR-5
  inhibition at 10 µM: < 1%
UACC-62
  inhibition at 10 µM: 2.01%
LOX IMVI
  inhibition at 10 µM: 4.86%
M14
  inhibition at 10 µM: 1.61%
other
  melting point: 195 to 198 °C
[1]
  logP: 1.59

## c1cn2cc(-c3ccc4c(c3)ncn4C3CCCCC3)nc(-c3ccc4c(c3)ncn4C3CCCCC3)c2n1 [Compound 30, 6,8-bis(1-cyclohexyl-1H-benzo[d]imidazol-5-yl)imidazo[1,2-a]pyrazine]
SR
  inhibition at 10 µM: 17.1%
RPMI-8226
  inhibition at 10 µM: 52.2%
HL-60(TB)
  inhibition at 10 µM: 32.9%
CCRF-CEM
  inhibition at 10 µM: 35.1%
MOLT-4
  inhibition at 10 µM: 43.6%
K-562
  inhibition at 10 µM: 47.2%
NCI-522
  inhibition at 10 µM: 17.7%
NCI-H23
  inhibition at 10 µM: 4.61%
NCI-H322M
  inhibition at 10 µM: < 1%
NCI-H226
  inhibition at 10 µM: 13.1%
MALME-3M
  inhibition at 10 µM: 8.16%
UACC-257
  inhibition at 10 µM: 5.79%
SK-MEL-5
  inhibition at 10 µM: 20.5%
SK-MEL-28
  inhibition at 10 µM: < 1%
MDA-MB-435
  inhibition at 10 µM: < 1%
DU-145
  inhibition at 10 µM: 6.22%
PC-3
  inhibition at 10 µM: 27.9%
SW-620
  inhibition at 10 µM: < 1%
KM12
  inhibition at 10 µM: 56.2%
HCC-2998
  inhibition at 10 µM: < 1%
BT-549
  inhibition at 10 µM: 5.9%
HS 578 T
  inhibition at 10 µM: 18.9%
T-47D
  inhibition at 10 µM: 34.7%
MDA-MB-468
  inhibition at 10 µM: 3.28%
MDA-MB-231/ATCC
  inhibition at 10 µM: 16.8%
MCF7
  inhibition at 10 µM: 23.9%
SN12C
  inhibition at 10 µM: 13.9%
RXF 393
  inhibition at 10 µM: 4.3%
UO-31
  inhibition at 10 µM: 26.8%
ACHN
  inhibition at 10 µM: 4.08%
CAKI-1
  inhibition at 10 µM: 9.21%
OVCAR-8
  inhibition at 10 µM: 11.6%
IGROV1
  inhibition at 10 µM: < 1%
NCI/ADR-RES
  inhibition at 10 µM: 4.12%
SK-OV-3
  inhibition at 10 µM: 11.8%
OVCAR-4
  inhibition at 10 µM: < 1%
OVCAR-5
  inhibition at 10 µM: < 1%
UACC-62
  inhibition at 10 µM: 12.4%
LOX IMVI
  inhibition at 10 µM: 11.7%
M14
  inhibition at 10 µM: < 1%
other
  melting point: 205 to 209 °C
[1]
  logP: 2.16
